The text below walks through data of patent publication US20040082635A1, “Fused cyclic compounds and medicinal use thereof” (priority 2001, published 2004).

The target of the assay is T1, HCV polymerase (Hepatitis C virus genotype 1b, UniProt P26663).
T1 construct: a region encoding NS5B (591 amino acids; J Virol 1991 Mar, 65(3), 1105-13) was amplified by PCR; 6 His (N); made in house; host or cells: Escherichia coli
T1 sequence (P26663 2420-3010): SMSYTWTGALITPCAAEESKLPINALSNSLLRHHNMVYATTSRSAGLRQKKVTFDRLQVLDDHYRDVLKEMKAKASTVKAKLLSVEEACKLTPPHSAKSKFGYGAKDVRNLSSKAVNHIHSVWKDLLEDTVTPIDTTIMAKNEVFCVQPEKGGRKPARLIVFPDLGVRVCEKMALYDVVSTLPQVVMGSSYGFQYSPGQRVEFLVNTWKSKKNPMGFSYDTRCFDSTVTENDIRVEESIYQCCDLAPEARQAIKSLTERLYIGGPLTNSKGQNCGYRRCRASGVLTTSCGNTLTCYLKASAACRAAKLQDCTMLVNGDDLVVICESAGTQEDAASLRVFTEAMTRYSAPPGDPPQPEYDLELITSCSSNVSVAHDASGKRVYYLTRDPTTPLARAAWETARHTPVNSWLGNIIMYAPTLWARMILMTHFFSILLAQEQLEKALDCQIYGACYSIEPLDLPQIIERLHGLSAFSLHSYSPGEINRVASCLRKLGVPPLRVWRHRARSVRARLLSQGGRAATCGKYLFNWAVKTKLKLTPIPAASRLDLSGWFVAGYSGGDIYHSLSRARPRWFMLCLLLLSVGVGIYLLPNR
Kind of assay: biochemical. Conditions: read-out: HCV polymerase inhibitory activity IC50.
On to `O=C(O)c1ccc2c(c1)nc(-c1ccc(OCc3ccccc3-c3ccc(C(F)(F)F)cc3)cc1F)n2C1CCCCC1` [Example 131, 1-cyclohexyl-2-{2-fluoro-4-[2-(4-trifluoromethylphenyl)-benzyloxy]phenyl}benzimidazole-5-carboxylic acid], for which the IC50 turned out to be 46 nM.

With `O=C(O)c1ccc2c(c1)nc(-c1ccc(Oc3ccc(OCc4ccccc4)cc3)cc1)n2C1CCCCC1` [Example 132, 2-[4-(4-benzyloxyphenoxy)phenyl]-1-cyclohexylbenzimidazole-5-carboxylic acid], the IC50 came to 55 nM.

Take `Cc1ccc(C(Oc2ccc(-c3nc4cc(C(=O)O)ccc4n3C3CCCCC3)cc2)c2ccc(C)cc2)cc1` [Example 133, 2-{4-[bis(4-methylphenyl)methoxy]phenyl}-1-cyclohexylbenzimidazole-5-carboxylic acid]: the IC50 amounted to 120 nM.

Regarding `O=C(O)c1ccc2c(c1)nc(-c1ccc(OC(c3ccc(F)cc3)c3ccc(F)cc3)cc1)n2C1CCCCC1` [Example 134, 2-{4-[bis(4-fluorophenyl)methoxy]phenyl}-1-cyclohexylbenzimidazole-5-carboxylic acid], the IC50 worked out at 71 nM.

As to `O=C(O)c1ccc2c(c1)nc(-c1ccc(OCCc3cccc(OCc4ccccc4)c3)cc1)n2C1CCCCC1` [Example 139, 2-{4-[2-(3-benzyloxyphenyl)ethoxy]phenyl}-1-cyclohexylbenzimidazole-5-carboxylic acid], the IC50 stood at 260 nM.

In the case of `O=C(O)COc1ccccc1Oc1ccc(-c2nc3cc(C(=O)O)ccc3n2C2CCCCC2)cc1` [Example 140, 2-[4-(2-carboxymethyloxyphenoxy)phenyl]-1-cyclohexylbenzimidazole-5-carboxylic acid], the half-inhibitory concentration (IC50) stood at 110 nM.

Regarding `O=C(O)COc1cccc(Oc2ccc(-c3nc4cc(C(=O)O)ccc4n3C3CCCCC3)cc2)c1` [Example 141, 2-[4-(3-carboxymethyloxyphenoxy)phenyl]-1-cyclohexylbenzimidazole-5-carboxylic acid], the IC50 was 430 nM.

`Cc1cc(OCc2ccccc2-c2ccc(C(F)(F)F)cc2)ccc1-c1nc2cc(C(=O)O)ccc2n1C1CCCCC1` [Example 144, 1-cyclohexyl-2-{2-methyl-4-[2-(4-trifluoromethylphenyl)-benzyloxy]phenyl}benzimidazole-5-carboxylic acid]: the IC50 stood at 190 nM.

On to `CC(C)(C)c1ccc(-c2ccc(Cl)cc2COc2ccc(-c3nc4cc(C(=O)O)ccc4n3C3CCCCC3)cc2)cc1` [Example 145, 2-{4-[2-(4-tert-butylphenyl)-5-chlorobenzyloxy]phenyl}-1-cyclohexylbenzimidazole-5-carboxylic acid], for which the 50% inhibitory concentration (IC50) is 88 nM.

As for `O=C(O)c1ccc2c(c1)nc(-c1ccc(OCc3cc(Cl)ccc3-c3ccccc3)cc1F)n2C1CCCCC1` [Example 146, 2-{4-(3-chloro-6-phenylbenzyloxy)-2-fluorophenyl}-1-cyclohexylbenzimidazole-5-carboxylic acid], the IC50 turned out to be 43 nM.

On to `O=C(O)c1ccc2c(c1)nc(-c1ccc(OCc3cc(Cl)ccc3-c3cc(Cl)cc(Cl)c3)cc1)n2C1CCCCC1` [Example 147, 2-{4-[3-chloro-6-(3,5-dichlorophenyl)benzyloxy]phenyl}-1-cyclohexylbenzimidazole-5-carboxylic acid], for which the IC50 worked out at 310 nM.

Regarding `O=C(O)c1ccc2c(c1)nc(-c1ccc(OC(c3ccc(F)cc3)c3ccc(F)cc3)cc1F)n2C1CCCCC1` [Example 148, 2-{4-[bis(4-fluorophenyl)methoxy]-2-fluorophenyl}-1-cyclohexylbenzimidazole-5-carboxylic acid], the IC50 was found to be 38 nM.

`O=C(O)c1ccc2c(c1)nc(-c1ccc(Oc3ccc(OCc4ccccc4)cc3)cc1Cl)n2C1CCCCC1` [Example 149, 2-{4-(4-benzyloxyphenoxy)-2-chlorophenyl}-1-cyclohexylbenzimidazole-5-carboxylic acid]: the concentration for half-maximal inhibition (IC50) worked out at 150 nM.
